Experimental data taken from PubChem BioAssay AID1259407 (Chemical Carcinogenesis Research Information System (CCRIS), 2018).
Calls of active or inactive are those of the source. No rule for the calls is given here.

Tested on: CCRIS mutagenicity, Ames/micronucleus/aberration tests
Assay: CCRIS mutagenicity studies
[1] = Test System: AMES SALMONELLA TYPHIMURIUM, Strain/Indicator: TA98, Metabolic Activation: NONE, Method: STANDARD PLATE
[2] = Test System: AMES SALMONELLA TYPHIMURIUM, Strain/Indicator: TA98, Metabolic Activation: RAT, LIVER, S-9, AROCLOR 1254, Method: STANDARD PLATE
[3] = Test System: AMES SALMONELLA TYPHIMURIUM, Strain/Indicator: TA100, Metabolic Activation: NONE, Method: STANDARD PLATE
[4] = Test System: AMES SALMONELLA TYPHIMURIUM, Strain/Indicator: TA100, Metabolic Activation: RAT, LIVER, S-9, AROCLOR 1254, Method: STANDARD PLATE
[5] = Test System: AMES SALMONELLA TYPHIMURIUM, Strain/Indicator: TA98, Metabolic Activation: NONE, Method: PREINCUBATION
[6] = Test System: AMES SALMONELLA TYPHIMURIUM, Strain/Indicator: TA100, Metabolic Activation: NONE, Method: PREINCUBATION
[7] = Test System: AMES SALMONELLA TYPHIMURIUM, Strain/Indicator: TA1535, Metabolic Activation: NONE, Method: PREINCUBATION
[8] = Test System: AMES SALMONELLA TYPHIMURIUM, Strain/Indicator: TA1537, Metabolic Activation: NONE, Method: PREINCUBATION
[9] = Test System: AMES SALMONELLA TYPHIMURIUM, Strain/Indicator: TA1538, Metabolic Activation: NONE, Method: PREINCUBATION

Measured: mutagenic call

c1ccc2c(c1)c1ccccc1c1cc3cnccc3cc21
inactive: [1] inactive; negative | [3] inactive; negative
active: Test System: AMES SALMONELLA TYPHIMURIUM, Strain/Indicator: TA98, Metabolic Activation: RAT, LIVER, S-9, AROCLOR 1254 (10%), Method: STANDARD PLATE active; positive | [2] active; positive | Test System: AMES SALMONELLA TYPHIMURIUM, Strain/Indicator: TA100, Metabolic Activation: RAT, LIVER, S-9, AROCLOR 1254 (10%), Method: STANDARD PLATE active; positive | [4] active; positive

O=P(O)(O)OP(=O)(O)OP(=O)(O)O
inactive: [5] inactive; negative | Test System: AMES SALMONELLA TYPHIMURIUM, Strain/Indicator: TA98, Metabolic Activation: RAT, LIVER, S-9, KC 500, Method: PREINCUBATION inactive; negative | [6] inactive; negative | Test System: AMES SALMONELLA TYPHIMURIUM, Strain/Indicator: TA100, Metabolic Activation: RAT, LIVER, S-9, KC 500, Method: PREINCUBATION inactive; negative | [7] inactive; negative | Test System: AMES SALMONELLA TYPHIMURIUM, Strain/Indicator: TA1535, Metabolic Activation: RAT, LIVER, S-9, KC 500, Method: PREINCUBATION inactive; negative | [8] inactive; negative | Test System: AMES SALMONELLA TYPHIMURIUM, Strain/Indicator: TA1537, Metabolic Activation: RAT, LIVER, S-9, KC 500, Method: PREINCUBATION inactive; negative | [9] inactive; negative | Test System: AMES SALMONELLA TYPHIMURIUM, Strain/Indicator: TA1538, Metabolic Activation: RAT, LIVER, S-9, KC 500, Method: PREINCUBATION inactive; negative | Test System: E. COLI, Strain/Indicator: WP2 UVRA, Metabolic Activation: NONE, Method: PREINCUBATION inactive; negative | Test System: E. COLI, Strain/Indicator: WP2 UVRA, Metabolic Activation: RAT, LIVER, S-9, KC 500, Method: PREINCUBATION inactive; negative

Cc1ccc(N)c([N+](=O)[O-])c1
inactive: [5] inactive; negative | Test System: AMES SALMONELLA TYPHIMURIUM, Strain/Indicator: TA98, Metabolic Activation: RAT, LIVER, S-9, KANECHLOR 500, Method: PREINCUBATION inactive; negative | [6] inactive; negative | Test System: AMES SALMONELLA TYPHIMURIUM, Strain/Indicator: TA100, Metabolic Activation: RAT, LIVER, S-9, KANECHLOR 500, Method: PREINCUBATION inactive; negative | Test System: UDS RODENT HEPATOCYTES, Strain/Indicator: THY INCORP (NON-S-PHASE), Metabolic Activation: NONE, Method: AUTORADIOGRAPHY inactive; negative

Nc1cc(Cl)nc(C(=O)O)c1Cl
inactive: End Point: In vitro chromosomal aberrations, Test System: Primary rat lymphocytes, Metabolic Activation: Rodent S-9 inactive; negative | Test System: Ames Salmonella typhimurium, Strain/Indicator: TA98, Metabolic Activation: None, Method: Preincubation inactive; negative; purity 94.5% | Test System: Ames Salmonella typhimurium, Strain/Indicator: TA98, Metabolic Activation: Rat, Liver, S-9, Aroclor 1254, Method: Preincubation inactive; negative; purity 94.5% | Test System: Ames Salmonella typhimurium, Strain/Indicator: TA100, Metabolic Activation: None, Method: Preincubation inactive; negative; purity 94.5% | Test System: Ames Salmonella typhimurium, Strain/Indicator: TA100, Metabolic Activation: Rat, Liver, S-9, Aroclor 1254, Method: Preincubation inactive; negative; purity 94.5% | Test System: Ames Salmonella typhimurium, Strain/Indicator: TA1535, Metabolic Activation: None, Method: Preincubation inactive; negative; purity 94.5% | Test System: Ames Salmonella typhimurium, Strain/Indicator: TA1535, Metabolic Activation: Rat, Liver, S-9, Aroclor 1254, Method: Preincubation inactive; negative; purity 94.5% | Test System: Ames Salmonella typhimurium, Strain/Indicator: TA1537, Metabolic Activation: None, Method: Preincubation inactive; negative; purity 94.5% | Test System: Ames Salmonella typhimurium, Strain/Indicator: TA1537, Metabolic Activation: Rat, Liver, S-9, Aroclor 1254, Method: Preincubation inactive; negative; purity 94.5% | Test System: Chinese hamster ovary cells, Strain/Indicator: CHO-K1-BH4/HGPRT, Metabolic Activation: None, Method: Forward mutation assay inactive; negative | Test System: Chinese hamster ovary cells, Strain/Indicator: CHO-K1-BH4/HGPRT, Metabolic Activation: Rat, Liver, S-9, Aroclor 1254, Method: Forward mutation assay inactive; negative; purity 94.5% | Test System: E. coli, Strain/Indicator: WP2 UVR A, Metabolic Activation: None, Method: Preincubation inactive; negative | Test System: E. coli, Strain/Indicator: WP2 UVRA, Metabolic Activation: Rat, Liver, S-9, Aroclor 1254, Method: Preincubation inactive; negative

CCCC[C@@H](C)[C@@H](OC(=O)C[C@@H](CC(=O)O)C(=O)O)[C@H](C[C@@H](C)C[C@H](O)CCCC[C@@H](O)C[C@H](O)[C@H](C)N)OC(=O)C[C@@H](CC(=O)O)C(=O)O
inactive: Test System: AMES SALMONELLA TYPHIMURIUM, Strain/Indicator: TA97A, Metabolic Activation: NONE, Method: STANDARD PLATE inactive; negative | Test System: AMES SALMONELLA TYPHIMURIUM, Strain/Indicator: TA97A, Metabolic Activation: RAT, LIVER, S-9, AROCLOR 1254, Method: STANDARD PLATE inactive; negative | [1] inactive; negative | Test System: AMES SALMONELLA TYPHIMURIUM, Strain/Indicator: TA98, Metabolic Activation: RAT LIVER S-9, Method: STANDARD PLATE inactive; negative | [2] inactive; negative | [3] inactive; negative | Test System: AMES SALMONELLA TYPHIMURIUM, Strain/Indicator: TA100, Metabolic Activation: RAT LIVER S-9, Method: STANDARD PLATE inactive; negative | [4] inactive; negative | Test System: AMES SALMONELLA TYPHIMURIUM, Strain/Indicator: TA102, Metabolic Activation: NONE, Method: STANDARD PLATE inactive; negative | Test System: AMES SALMONELLA TYPHIMURIUM, Strain/Indicator: TA102, Metabolic Activation: RAT LIVER S-9, Method: STANDARD PLATE inactive; negative | Test System: AMES SALMONELLA TYPHIMURIUM, Strain/Indicator: TA102, Metabolic Activation: RAT, LIVER, S-9, AROCLOR 1254, Method: STANDARD PLATE inactive; negative

CC1CCc2c(N3CCC(O)CC3)c(F)cc3c(=O)c(C(=O)O)cn1c23 (centres undefined)
inactive: [5] inactive; negative | Test System: AMES SALMONELLA TYPHIMURIUM, Strain/Indicator: TA98, Metabolic Activation: RAT, LIVER, S-9, NADPH, Method: PREINCUBATION inactive; negative | [6] inactive; negative | Test System: AMES SALMONELLA TYPHIMURIUM, Strain/Indicator: TA100, Metabolic Activation: RAT, LIVER, S-9, NADPH, Method: PREINCUBATION inactive; negative | [7] inactive; negative | Test System: AMES SALMONELLA TYPHIMURIUM, Strain/Indicator: TA1535, Metabolic Activation: RAT, LIVER, S-9, NADPH, Method: PREINCUBATION inactive; negative | [8] inactive; negative | Test System: AMES SALMONELLA TYPHIMURIUM, Strain/Indicator: TA1537, Metabolic Activation: RAT, LIVER, S-9, NADPH, Method: PREINCUBATION inactive; negative | [9] inactive; negative | Test System: AMES SALMONELLA TYPHIMURIUM, Strain/Indicator: TA1538, Metabolic Activation: RAT, LIVER, S-9, NADPH, Method: PREINCUBATION inactive; negative | Test System: E. COLI, Strain/Indicator: WP2 UVRA, Metabolic Activation: RAT, LIVER, S-9, NADPH, Method: PREINCUBATION inactive; negative | Test System: E.COLI, Strain/Indicator: WP2 UVRA, Metabolic Activation: NONE, Method: PREINCUBATION inactive; negative
